Values of other authors in PubChem BioAssay AID1259409 (Chemical Carcinogenesis Research Information System (CCRIS), 2018).

System: rodent chemically induced tumor inhibition, incidence and multiplicity
Test: CCRIS tumor inhibitor studies
Conditions: Carcinogen: PHENACETIN, 62-44-2, N-BUTYL-N-(4-HYDROXYBUTYL)NITROSAMINE, 3817-11-6, Carcinogen: PHENACETIN, 62-44-2, N-BUTYL-N-(4-HYDROXYBUTYL)NITROSAMINE, 3817-11-6, Dose [Inhibitor]: 0, Route [Inhibitor]: SUBCUTANEOUS, Species: MOUSE, Strain/Sex: NON/SHI/MALE, Promoter: NONE USED

CC[C@H](C)[C@@H](NC(=O)[C@@H](CCC(=O)O)NC(=O)[C@@H](CO)NC(=O)[C@@H](CO)NC(=O)[C@H](NC(=O)[C@@H](CC(=O)O)NC(=O)[C@H](NC(=O)[C@H](C)NC(=O)[C@H](C)NC(=O)[C@@H](CC(=O)O)NC(=O)[C@@H](CO)NC(=O)[C@H](N)CS)C(C)C)C(C)C)C(=O)N[C@@H](C(=O)N[C@@H](C(=O)N[C@H](CCCCN)C(=O)N[C@H](CC(=O)O)C(=O)N[C@H](CC(C)C)C(=O)N[C@H](CCCCN)C(=O)N[C@H](CCC(=O)O)C(=O)N[C@H](CCCCN)C(=O)N[C@H](CCCCN)C(=O)N[C@H](CCC(=O)O)C(=O)N[C@@H](C(=O)N[C@@H](C(=O)N[C@H](CCC(=O)O)C(=O)N[C@H](CCC(=O)O)C(=O)N[C@@H](C)C(=O)N[C@H](CCC(=O)O)C(=O)O)C(C)C)C(C)C)C(C)C)[C@H](C)O
tumour outcome (control, treated, inhibition, significance) (60 UG IN 0.1 ML SALINE 2/WK FOR 6 WK CONCURRENTLY WITH BBN TREATMENT (STUDY DURATION: 34 WK), Target Tissue: Type of Lesion: URINARY BLADDER: CARCINOMA, Dose [Carcinogen]: 2% PHENACETIN IN DIET FOR 12 WK FOLLOWED BY 0.05% BBN IN DRINKING WATER FOR 6 WK): 7/20 (35%), 5/19 (26%), 26%, not significant | tumour outcome (control, treated, inhibition, significance) (60 UG IN 0.1 ML SALINE 2/WK FOR 16 WK BEGINNING POST CARCINOGEN TREATMENT (STUDY DURATION: 30 WK), Target Tissue: Type of Lesion: RENAL PELVIS: CARCINOMA, Dose [Carcinogen]: 2% PHENACETIN IN DIET FOR 8 WK FOLLOWED BY 0.05% BBN IN DRINKING WATER FOR 6 WK): 2/11 (18%), 8/12 (67%), -272%, not significant | tumour outcome (control, treated, inhibition, significance) (60 UG IN 0.1 ML SALINE 2/WK FOR 16 WK BEGINNING POST CARCINOGEN TREATMENT (STUDY DURATION: 30 WK), Target Tissue: Type of Lesion: URINARY BLADDER: CARCINOMA, Dose [Carcinogen]: 2% PHENACETIN IN DIET FOR 8 WK FOLLOWED BY 0.05% BBN IN DRINKING WATER FOR 6 WK): 2/11 (18%), 3/12 (25%), -39%, not significant | tumour outcome (control, treated, inhibition, significance) (60 UG IN 0.1 ML SALINE 2/WK FOR 16 WK BEGINNING POST CARCINOGEN TREATMENT (STUDY DURATION: 34 WK), Target Tissue: Type of Lesion: RENAL PELVIS: CARCINOMA, Dose [Carcinogen]: 2% PHENACETIN IN DIET FOR 12 WK FOLLOWED BY 0.05% BBN IN DRINKING WATER FOR 6 WK): 9/20 (45%), 10/18 (56%), -24%, not significant | tumour outcome (control, treated, inhibition, significance) (60 UG IN 0.1 ML SALINE 2/WK FOR 16 WK BEGINNING POST CARCINOGEN TREATMENT (STUDY DURATION: 34 WK), Target Tissue: Type of Lesion: URINARY BLADDER: CARCINOMA, Dose [Carcinogen]: 2% PHENACETIN IN DIET FOR 12 WK FOLLOWED BY 0.05% BBN IN DRINKING WATER FOR 6 WK): 7/20 (35%), 4/18 (22%), 37%, not significant | tumour outcome (control, treated, inhibition, significance) (60 UG IN 0.1 ML SALINE 2/WK FOR 22 WK BEGINNING POST PHENACETIN TREATMENT (STUDY DURATION: 30 WK), Target Tissue: Type of Lesion: RENAL PELVIS: CARCINOMA, Dose [Carcinogen]: 2% PHENACETIN IN DIET FOR 8 WK FOLLOWED BY 0.05% BBN IN DRINKING WATER FOR 6 WK): 2/11 (18%), 2/12 (17%), 5%, not significant | tumour outcome (control, treated, inhibition, significance) (60 UG IN 0.1 ML SALINE 2/WK FOR 22 WK BEGINNING POST PHENACETIN TREATMENT (STUDY DURATION: 30 WK), Target Tissue: Type of Lesion: URINARY BLADDER: CARCINOMA, Dose [Carcinogen]: 2% PHENACETIN IN DIET FOR 8 WK FOLLOWED BY 0.05% BBN IN DRINKING WATER FOR 6 WK): 2/11 (18%), 1/12 (8%), 56%, not significant | tumour outcome (control, treated, inhibition, significance) (60 UG IN 0.1 ML SALINE 2/WK FOR 22 WK BEGINNING POST PHENACETIN TREATMENT (STUDY DURATION: 34 WK), Target Tissue: Type of Lesion: RENAL PELVIS: CARCINOMA, Dose [Carcinogen]: 2% PHENACETIN IN DIET FOR 12 WK FOLLOWED BY 0.05% BBN IN DRINKING WATER FOR 6 WK): 9/20 (45%), 13/19 (68%), -51%, not significant | tumour outcome (control, treated, inhibition, significance) (60 UG IN 0.1 ML SALINE 2/WK FOR 22 WK BEGINNING POST PHENACETIN TREATMENT (STUDY DURATION:34 WK), Target Tissue: Type of Lesion: URINARY BLADDER: CARCINOMA, Dose [Carcinogen]: 2% PHENACETIN IN DIET FOR 12 WK FOLLOWED BY 0.05% BBN IN DRINKING WATER FOR 6 WK): 7/20 (35%), 7/19 (37%), -6%, not significant
